Experimental findings from ChEMBL document CHEMBL1134732, “Acid dissociation constant, a potential physicochemical factor in the inhibition of the enzyme estrone sulfatase (ES)” (Bioorg Med Chem Lett, 2001) are described below.

In data set [1] the target is T1, Steryl-sulfatase (Homo sapiens, UniProt P08842).
T1 sequence (P08842 whole entry): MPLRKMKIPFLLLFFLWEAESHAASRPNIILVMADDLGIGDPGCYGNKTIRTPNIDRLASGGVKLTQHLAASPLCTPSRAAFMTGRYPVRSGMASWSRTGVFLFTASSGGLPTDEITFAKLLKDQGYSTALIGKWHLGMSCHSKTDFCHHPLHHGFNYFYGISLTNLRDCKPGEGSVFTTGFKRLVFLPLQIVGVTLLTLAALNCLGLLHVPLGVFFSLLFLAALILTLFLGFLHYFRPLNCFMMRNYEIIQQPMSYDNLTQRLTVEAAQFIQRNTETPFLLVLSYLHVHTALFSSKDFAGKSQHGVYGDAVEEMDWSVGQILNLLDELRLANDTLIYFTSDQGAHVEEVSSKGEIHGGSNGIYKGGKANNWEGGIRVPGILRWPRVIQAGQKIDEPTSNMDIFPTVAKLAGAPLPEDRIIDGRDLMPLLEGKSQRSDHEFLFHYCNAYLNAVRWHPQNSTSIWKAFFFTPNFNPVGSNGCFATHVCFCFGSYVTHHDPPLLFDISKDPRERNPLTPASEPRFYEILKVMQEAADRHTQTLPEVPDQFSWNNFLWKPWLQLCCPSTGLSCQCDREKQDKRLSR
Nature of the data set: Inhibitory concentration against estrone sulfatase.

A short description of data set [2]: (§1) Potency for the inhibition of estrone sulfatase relative to coumate.
Data set [3] is described as follows: Dissociation constant was determined. In kind it is physicochemical.
The target in data set [4] is T2, Steryl-sulfatase (Homo sapiens) (UniProt P08842).
T2 sequence (whole entry): T1 sequence (P08842 whole entry)
The data set is described as §1.

Bounds are passed on as bounds.

With `NS(=O)(=O)Oc1ccc2ccc(=O)oc2c1`, half-maximal inhibition in data set [1] (IC50) required 12 µM. For the same molecule, in data set [2], the Relative potency was 1.

`NS(=O)(=O)Oc1ccc(F)cc1` came in with an IC50 in data set [1] greater than 10000 µM. This molecule gave a pKa in data set [3] of 9.8.

In data set [1], `NS(=O)(=O)Oc1ccc(Cl)cc1` returned an IC50 of 1580 µM. The pKa in data set [3] amounted to 9.5. This molecule came in with a Relative potency in data set [4] of 132.

In data set [1], `NS(=O)(=O)Oc1ccccc1` [PHENYLSULFAMATE] yielded an IC50 greater than 10000 µM. Moreover, the pKa in data set [3] was 9.98.

For the molecule `N#Cc1cccc(OS(N)(=O)=O)c1`, the IC50 in data set [1] amounted to 190 µM. This molecule also yielded a pKa in data set [3] of 8.54. This molecule displayed a Relative potency in data set [4] of 16.

Consider `Cc1cccc(OS(N)(=O)=O)c1`, for which, in data set [1], the IC50 was greater than 10000 µM. This molecule displayed a pKa in data set [3] of 10.

`NS(=O)(=O)Oc1cccc([N+](=O)[O-])c1` gave an IC50 in data set [1] of 120 µM. In addition, the pKa in data set [3] was determined as 8.28. Also, in data set [4], the Relative potency came out at 10.

`Cc1ccc(OS(N)(=O)=O)cc1` showed an IC50 in data set [1] greater than 10000 µM. In addition, in data set [3], the pKa came out at 10.2.

For `C[C@]12CC[C@@H]3c4ccc(OS(N)(=O)=O)cc4CC[C@H]3[C@@H]1CCC2=O` [EMATE], the IC50 in data set [1] was determined as 0.1 µM. For the same molecule, the Relative potency in data set [2] came to 0.008.

With `NS(=O)(=O)Oc1ccc(Br)cc1`, in data set [1], half-maximal inhibition (IC50) required 912 µM. The pKa in data set [3] is 9.29. Also, in data set [4], the Relative potency was found to be 76.

Regarding `NS(=O)(=O)Oc1cccc(Br)c1`, 257 µM corresponded to half-maximal inhibition in data set [1] (IC50). The same molecule came in with a pKa in data set [3] of 8.95. In data set [4], this molecule showed a Relative potency of 21.

In data set [1], `NS(=O)(=O)Oc1ccc([N+](=O)[O-])cc1` gave a 50% inhibitory concentration (IC50) of 330 µM. This molecule came in with a pKa in data set [3] of 7.15. The Relative potency in data set [4] worked out at 27.5.

In data set [1], `NS(=O)(=O)Oc1cccc(F)c1` registered an IC50 of 2090 µM. The same molecule registered a pKa in data set [3] of 9.16. In data set [4], this molecule came in with a Relative potency of 174.

Molecule `NS(=O)(=O)Oc1cccc(Cl)c1` yielded an IC50 in data set [1] of 537 µM. This molecule had a pKa in data set [3] of 9. In data set [4], this molecule gave a Relative potency of 45.

In data set [1], `N#Cc1ccc(OS(N)(=O)=O)cc1` displayed an IC50 of 300 µM. The same molecule registered a pKa in data set [3] of 8.02. Besides, the Relative potency in data set [4] amounted to 25.

In general, IC50 refers to the point on the concentration scale where inhibition reaches its midpoint. As a reminder, the pKa is the pH at which an ionisable group is half protonated.
